Measured values: patent publication US8183271B2, “Tetrazole derivatives and their use for the treatment of cardiovascular diseases” (Bayer Intellectual Property GmbH, priority 2005, dated 2012)

Assays:
[1] = target: T1, Heme-free sGC (recombinant soluble guanylate cyclase) (Rattus norvegicus, UniProt P20595); experiment: Stimulation of recombinant soluble guanylate cyclase (sGC) in vitro, heme-free enzyme; assay type: biochemical
T1 construct: made in house
T1 sequence (P20595 1-619): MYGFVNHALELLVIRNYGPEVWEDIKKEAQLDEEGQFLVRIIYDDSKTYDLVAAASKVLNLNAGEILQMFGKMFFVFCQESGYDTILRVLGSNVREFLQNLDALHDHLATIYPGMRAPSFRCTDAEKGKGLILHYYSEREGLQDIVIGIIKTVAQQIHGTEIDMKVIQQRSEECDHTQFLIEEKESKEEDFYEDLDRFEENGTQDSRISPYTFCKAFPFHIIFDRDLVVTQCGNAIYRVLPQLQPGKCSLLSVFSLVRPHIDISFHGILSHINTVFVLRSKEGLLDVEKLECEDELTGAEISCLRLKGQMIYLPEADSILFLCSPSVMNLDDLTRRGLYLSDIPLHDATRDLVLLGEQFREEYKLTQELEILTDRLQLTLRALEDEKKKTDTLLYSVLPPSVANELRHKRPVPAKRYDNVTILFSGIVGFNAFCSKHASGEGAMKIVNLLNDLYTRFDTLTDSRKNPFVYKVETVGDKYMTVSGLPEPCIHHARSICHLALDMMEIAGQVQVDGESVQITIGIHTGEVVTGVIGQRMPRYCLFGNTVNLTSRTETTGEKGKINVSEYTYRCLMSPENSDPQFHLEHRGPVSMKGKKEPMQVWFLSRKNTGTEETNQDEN
T1 sequence (P19686 1-690 partner): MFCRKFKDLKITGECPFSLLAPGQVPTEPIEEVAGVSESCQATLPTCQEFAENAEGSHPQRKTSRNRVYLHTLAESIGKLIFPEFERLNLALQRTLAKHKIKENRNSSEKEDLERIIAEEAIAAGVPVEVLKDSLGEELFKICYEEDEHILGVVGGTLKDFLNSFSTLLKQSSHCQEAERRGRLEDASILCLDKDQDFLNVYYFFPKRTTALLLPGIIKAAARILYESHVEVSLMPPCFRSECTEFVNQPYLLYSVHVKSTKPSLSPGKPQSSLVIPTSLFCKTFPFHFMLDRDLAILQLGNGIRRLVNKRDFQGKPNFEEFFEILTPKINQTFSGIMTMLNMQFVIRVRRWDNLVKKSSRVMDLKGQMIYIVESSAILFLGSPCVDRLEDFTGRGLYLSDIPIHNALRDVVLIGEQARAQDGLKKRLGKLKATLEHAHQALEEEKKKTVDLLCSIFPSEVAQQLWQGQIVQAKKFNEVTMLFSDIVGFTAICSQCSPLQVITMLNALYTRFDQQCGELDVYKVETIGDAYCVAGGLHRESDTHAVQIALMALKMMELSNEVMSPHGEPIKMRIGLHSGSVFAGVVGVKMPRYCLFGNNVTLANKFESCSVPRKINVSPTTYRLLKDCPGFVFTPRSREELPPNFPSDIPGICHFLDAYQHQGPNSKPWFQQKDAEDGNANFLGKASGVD
Experimental: Investigations on the stimulation of recombinant soluble guanylate cyclase (sGC) by the compounds according to the invention with and without sodium nitroprusside, and with and without the heme-dependent sGC inhibitor 1H-1,2,4-oxadiazole-(4,3a)-quinoxalin-1-one (ODQ) are carried out by the method described in detail in the following reference: M. Hoenicka, E. M. Becker, H. Apeler, T. Sirichoke, H. Schroeder, R. Gerzer and J.-P. Stasch, “Purified soluble guanylyl cyclase expressed in a baculovirus/Sf9 system: Stimulation by YC-1, nitric oxide, and […]”, J. Mol. Med. 77 (1999), 14-23. The heme-free guanylate cyclase is obtained by adding Tween 20 to the sample buffer (0.5% in the final concentration).
The activation of sGC by a test substance is reported as n-fold stimulation of the basal activity.

saphenous artery rings = experiment: Vasorelaxant effect in vitro (phenylephrine-contracted artery rings); assay type: cell-based, Rabbits; conditions: rabbit saphenous artery rings, contraction induced by phenylephrine
Experimental: Rabbits are anesthetized and sacrificed by intravenous injection of thiopental sodium (about 50 mg/kg) and exsanguinated. The saphenous artery is removed and divided into rings 3 mm wide. The rings are mounted singly on in each case a pair of triangular hooks open at the end and made of 0.3 mm-thick special wire (Remanium®). Each ring is placed under an initial tension in 5 ml organ baths with Krebs-Henseleit solution which is at 37° C., is gassed with 95% O2/5% CO2 and has the following composition: NaCl 119 mM; KCl 4.8 mM; CaCl2×2H2O 1 mM; MgSO4×7H2O 1.4 mM; KH2PO4 1.2 mM; NaHCO3 25 mM; glucose 10 mM; bovine serum albumin 0.001%. The force of contraction is detected with Statham UC2 cells, amplified and digitized via A/D converters (DAS-1802 HC, Keithley Instruments, Munich) and recorded in parallel on chart recorders. Contractions are induced by addition of phenylephrine.
After several (generally 4) control cycles, the substance to be investigated is added in each further run in increasing dosage, and the height of the contraction achieved under the influence of the test substance is compared with the height of the contraction reached in the last preceding run. The concentration necessary to reduce the contraction reached in the preceding control by 50% is calculated from this (IC50). The standard application volume is 5 μl. The proportion of DMSO in the bath solution corresponds to 0.1%.

- Stimulation (n-fold) Heme-free sGC Basal ([1]; 0.001 μM Example 6): 3.2 n-fold
- Stimulation (n-fold) Heme-free sGC +10 μM ODQ ([1]; 0.001 μM Example 6 + 10 μM ODQ): 3.0 n-fold
- Stimulation (n-fold) Heme-free sGC Basal ([1]; 0.01 μM Example 6): 20.4 n-fold
- Stimulation (n-fold) Heme-free sGC +10 μM ODQ ([1]; 0.01 μM Example 6 + 10 μM ODQ): 18.9 n-fold
- Stimulation (n-fold) Heme-free sGC Basal ([1]; 0.1 μM Example 6): 90.9 n-fold
- Stimulation (n-fold) Heme-free sGC +10 μM ODQ ([1]; 0.1 μM Example 6 + 10 μM ODQ): 89.7 n-fold
- Stimulation (n-fold) Heme-free sGC Basal ([1]; 1 μM Example 6): 143.8 n-fold
- Stimulation (n-fold) Heme-free sGC +10 μM ODQ ([1]; 1 μM Example 6 + 10 μM ODQ): 143.8 n-fold
- Stimulation (n-fold) Heme-free sGC Basal ([1]; 10 μM Example 6): 145.9 n-fold
- Stimulation (n-fold) Heme-free sGC +10 μM ODQ ([1]; 10 μM Example 6 + 10 μM ODQ): 149.3 n-fold
- IC50 (saphenous artery rings): 0.119 µM
SMILES: CC(C)(C)c1ccc(COc2ccccc2/C=C/C(CCc2ccc(-c3nnn[nH]3)cc2)Cc2ccc(C(=O)O)cc2)cc1 (single isomer, unassigned) [Example 6, 4-((3E)-4-{2-[(4-tert-Butylbenzyl)oxy]phenyl}-2-{2-[4-(1H-tetrazol-5-yl)phenyl]ethyl}but-3-en-1-yl)benzoic acid]
